Measured values taken from ChEMBL document CHEMBL3885861, “Open TG-GATES”.

Species: Rattus norvegicus
Experiment: Open TG-GATES - Regimen: Single
Assay type: toxicity, organism-based, Sprague-Dawley
Parameters: regimen Single, gender Male, age 6 weeks
Details: in vivo, ip, route intraperitoneal injection; for APTT / Bas / Eos / Fbg / Hb / Lym / MCH / MCHC / Mono / Neu / PT / Plat / RBC / Ret / WBC / Ht / MCV: tissue Blood; for KIDNEY_L / KIDNEY_R / KIDNEY_TOTAL: tissue Kidney; for LIVER: tissue Liver; for ALP / ALT / AST / BUN / CRE / Ca / DBIL / GLC / IP / K / LDH / PL / RALB / TBIL / TC / TG / TP / gamma-GTP / Na: tissue Plasma
[1] = 0.3 mg/kg, 3 h, dose 300 ug/Kg, dose level Middle
[2] = 0.3 mg/kg, 6 h, dose 300 ug/Kg, dose level Middle
[3] = 0.3 mg/kg, 9 h, dose 300 ug/Kg, dose level Middle
[4] = 0.3 mg/kg, 24 h, dose 300 ug/Kg, dose level Middle
[5] = 3 mg/kg, 3 h, dose 3000 ug/Kg, dose level High
[6] = 3 mg/kg, 6 h, dose 3000 ug/Kg, dose level High
[7] = 3 mg/kg, 9 h, dose 3000 ug/Kg, dose level High
[8] = 3 mg/kg, 24 h, dose 3000 ug/Kg, dose level High

Substance: LPS
- APTT [1]: 22.5 s
- Bas [1]: 0%
- Eos [1]: 0.3%
- Fbg [1]: 152.7 mg/dL
- Hb [1]: 13.6 g/dL
- Lym [1]: 75%
- MCH [1]: 21.8 pg
- MCHC [1]: 32.9%
- Mono [1]: 0.7%
- Neu [1]: 24%
- PT [1]: 17.9 s
- Plat [1]: 65.5 x10_4/uL
- RBC [1]: 625.3 x10_4/ul
- Ret [1]: 9.1%
- WBC [1]: 24.9 x10_2/uL
- KIDNEY_L [1]: 1 g
- KIDNEY_R [1]: 1 g
- KIDNEY_TOTAL [1]: 2 g
- LIVER [1]: 8.6 g
- ALP [1]: 1337.3 IU/L
- ALT [1]: 67.3 IU/L
- AST [1]: 171 IU/L
- BUN [1]: 12.7 mg/dL
- CRE [1]: 0.2 mg/dL
- Ca [1]: 9.7 mg/dL
- DBIL [1]: 0.0533 mg/dL
- GLC [1]: 138.7 mg/dL
- IP [1]: 9.3 mg/dL
- K [1]: 3.9 meq/L
- LDH [1]: 487.3 IU/L
- PL [1]: 134 mg/dL
- RALB [1]: 2.2 g/dL
- TBIL [1]: 0.2 mg/dL
- TC [1]: 68.3 mg/dL
- TG [1]: 96 mg/dL
- TP [1]: 5 g/dL
- gamma-GTP [1]: 1 IU/L
- TERMINAL_BW [2]: 193.4 g
- APTT [2]: 28.2 s
- Bas [2]: 0%
- Eos [2]: 1%
- Fbg [2]: 185.7 mg/dL
- Hb [2]: 13.6 g/dL
- Ht [2]: 40.7%
- Lym [2]: 56%
- MCHC [2]: 33.3%
- MCV [2]: 64.7 fL
- Mono [2]: 1%
- Neu [2]: 41.3%
- PT [2]: 17.8 s
- Plat [2]: 56 x10_4/uL
- RBC [2]: 629.3 x10_4/ul
- Ret [2]: 9.3%
- WBC [2]: 34.8 x10_2/uL
- KIDNEY_L [2]: 0.9 g
- KIDNEY_R [2]: 0.9 g
- KIDNEY_TOTAL [2]: 1.9 g
- LIVER [2]: 8 g
- ALP [2]: 1219 IU/L
- ALT [2]: 143.7 IU/L
- AST [2]: 272 IU/L
- BUN [2]: 18.3 mg/dL
- CRE [2]: 0.2 mg/dL
- Ca [2]: 9.7 mg/dL
- DBIL [2]: 0.1 mg/dL
- GLC [2]: 140 mg/dL
- IP [2]: 9.9 mg/dL
- K [2]: 4 meq/L
- LDH [2]: 1262.7 IU/L
- Na [2]: 139.7 meq/L
- PL [2]: 163.3 mg/dL
- RALB [2]: 2.2 g/dL
- TBIL [2]: 0.4 mg/dL
- TC [2]: 103.7 mg/dL
- TG [2]: 65.3 mg/dL
- TP [2]: 5 g/dL
- gamma-GTP [2]: 2.3 IU/L
- TERMINAL_BW [3]: 188.8 g
- APTT [3]: 22.1 s
- Bas [3]: 0%
- Eos [3]: 1%
- Fbg [3]: 248.7 mg/dL
- Hb [3]: 13.8 g/dL
- Lym [3]: 51.3%
- MCV [3]: 64.7 fL
- Mono [3]: 1%
- Neu [3]: 46.7%
- Plat [3]: 59.9 x10_4/uL
- RBC [3]: 643.7 x10_4/ul
- Ret [3]: 8.7%
- WBC [3]: 71 x10_2/uL
- KIDNEY_L [3]: 0.9 g
- KIDNEY_R [3]: 0.9 g
- KIDNEY_TOTAL [3]: 1.9 g
- LIVER [3]: 7.2 g
- ALP [3]: 1291 IU/L
- ALT [3]: 126.3 IU/L
- AST [3]: 246.7 IU/L
- BUN [3]: 16.3 mg/dL
- CRE [3]: 0.2 mg/dL
- Ca [3]: 10 mg/dL
- DBIL [3]: 0.0533 mg/dL
- GLC [3]: 139.3 mg/dL
- IP [3]: 9.6 mg/dL
- K [3]: 4.1 meq/L
- LDH [3]: 1570.3 IU/L
- Na [3]: 140.3 meq/L
- PL [3]: 166.3 mg/dL
- RALB [3]: 2.4 g/dL
- TBIL [3]: 0.2 mg/dL
- TC [3]: 119 mg/dL
- TG [3]: 38 mg/dL
- TP [3]: 5.4 g/dL
- gamma-GTP [3]: 4.3 IU/L
- TERMINAL_BW [4]: 189.4 g
- APTT [4]: 19.4 s
- Bas [4]: 0%
- Eos [4]: 1%
- Fbg [4]: 519 mg/dL
- Hb [4]: 13.6 g/dL
- Lym [4]: 61.7%
- MCH [4]: 20.6 pg
- MCHC [4]: 32.9%
- Mono [4]: 2.7%
- Neu [4]: 33.3%
- PT [4]: 14.6 s
- Plat [4]: 53.7 x10_4/uL
- RBC [4]: 660.3 x10_4/ul
- Ret [4]: 6.6%
- WBC [4]: 82.4 x10_2/uL
- KIDNEY_L [4]: 0.9 g
- KIDNEY_R [4]: 0.9 g
- KIDNEY_TOTAL [4]: 1.8 g
- LIVER [4]: 9.2 g
- ALP [4]: 1258 IU/L
- ALT [4]: 36.7 IU/L
- AST [4]: 71 IU/L
- BUN [4]: 18.3 mg/dL
- CRE [4]: 0.2 mg/dL
- DBIL [4]: 0.01 mg/dL
- GLC [4]: 181.3 mg/dL
- IP [4]: 9.2 mg/dL
- K [4]: 4.7 meq/L
- LDH [4]: 64 IU/L
- PL [4]: 176 mg/dL
- RALB [4]: 2.7 g/dL
- TBIL [4]: 0.07 mg/dL
- TC [4]: 107 mg/dL
- TG [4]: 47.7 mg/dL
- TP [4]: 5.9 g/dL
- gamma-GTP [4]: 1.7 IU/L
- TERMINAL_BW [5]: 197.5 g
- Bas [5]: 0.3%
- Eos [5]: 0%
- Fbg [5]: 186.3 mg/dL
- Ht [5]: 40.6%
- Lym [5]: 62.3%
- MCV [5]: 66.6 fL
- Mono [5]: 2%
- Neu [5]: 34.7%
- PT [5]: 17.1 s
- Plat [5]: 83.4 x10_4/uL
- RBC [5]: 608.7 x10_4/ul
- Ret [5]: 9.7%
- WBC [5]: 42.6 x10_2/uL
- KIDNEY_L [5]: 0.9 g
- KIDNEY_R [5]: 0.9 g
- KIDNEY_TOTAL [5]: 1.9 g
- LIVER [5]: 9.2 g
- ALP [5]: 1326.7 IU/L
- ALT [5]: 48 IU/L
- AST [5]: 122.3 IU/L
- BUN [5]: 15 mg/dL
- CRE [5]: 0.2 mg/dL
- Ca [5]: 10 mg/dL
- DBIL [5]: 0.0233 mg/dL
- GLC [5]: 148.7 mg/dL
- K [5]: 4.1 meq/L
- LDH [5]: 229.3 IU/L
- RALB [5]: 2.2 g/dL
- TBIL [5]: 0.0667 mg/dL
- TC [5]: 78.3 mg/dL
- TG [5]: 143 mg/dL
- TP [5]: 4.8 g/dL
- gamma-GTP [5]: 1.7 IU/L
- TERMINAL_BW [6]: 192.5 g
- APTT [6]: 25.9 s
- Bas [6]: 0%
- Eos [6]: 1%
- Fbg [6]: 158.3 mg/dL
- Lym [6]: 65.3%
- MCHC [6]: 32.8%
- MCV [6]: 64.5 fL
- Mono [6]: 1%
- Neu [6]: 31.7%
- PT [6]: 18.2 s
- Plat [6]: 47.4 x10_4/uL
- RBC [6]: 627.3 x10_4/ul
- Ret [6]: 8.9%
- WBC [6]: 21.1 x10_2/uL
- KIDNEY_L [6]: 1 g
- KIDNEY_R [6]: 0.9 g
- KIDNEY_TOTAL [6]: 1.9 g
- LIVER [6]: 7.6 g
- ALP [6]: 1321.7 IU/L
- ALT [6]: 378.7 IU/L
- AST [6]: 499.3 IU/L
- BUN [6]: 23.3 mg/dL
- CRE [6]: 0.2 mg/dL
- Ca [6]: 9.5 mg/dL
- DBIL [6]: 0.2 mg/dL
- GLC [6]: 124.3 mg/dL
- IP [6]: 10.4 mg/dL
- K [6]: 4.4 meq/L
- LDH [6]: 2239.3 IU/L
- Na [6]: 140.3 meq/L
- PL [6]: 156.7 mg/dL
- RALB [6]: 2.2 g/dL
- TBIL [6]: 0.3 mg/dL
- TC [6]: 90 mg/dL
- TG [6]: 87 mg/dL
- TP [6]: 4.9 g/dL
- gamma-GTP [6]: 2.7 IU/L
- TERMINAL_BW [7]: 188.4 g
- APTT [7]: 25 s
- Bas [7]: 0%
- Eos [7]: 1%
- Fbg [7]: 180.7 mg/dL
- Ht [7]: 41.4%
- Lym [7]: 56%
- MCHC [7]: 32.7%
- MCV [7]: 64.7 fL
- Mono [7]: 1%
- Neu [7]: 42%
- PT [7]: 17.9 s
- Plat [7]: 27.3 x10_4/uL
- RBC [7]: 641 x10_4/ul
- Ret [7]: 8.6%
- WBC [7]: 48.1 x10_2/uL
- KIDNEY_L [7]: 0.9 g
- KIDNEY_R [7]: 0.9 g
- KIDNEY_TOTAL [7]: 1.9 g
- LIVER [7]: 7.4 g
- ALP [7]: 1439.3 IU/L
- ALT [7]: 320.3 IU/L
- AST [7]: 534.3 IU/L
- BUN [7]: 29.7 mg/dL
- CRE [7]: 0.2 mg/dL
- Ca [7]: 9.5 mg/dL
- DBIL [7]: 0.2 mg/dL
- GLC [7]: 116 mg/dL
- K [7]: 4.6 meq/L
- LDH [7]: 1843.3 IU/L
- Na [7]: 138.3 meq/L
- PL [7]: 169.7 mg/dL
- RALB [7]: 2.1 g/dL
- TBIL [7]: 0.4 mg/dL
- TC [7]: 115.7 mg/dL
- TG [7]: 117.7 mg/dL
- TP [7]: 4.8 g/dL
- gamma-GTP [7]: 4 IU/L
- TERMINAL_BW [8]: 191.8 g
- APTT [8]: 23.8 s
- Bas [8]: 0.7%
- Eos [8]: 1%
- Fbg [8]: 336 mg/dL
- Hb [8]: 12.1 g/dL
- Ht [8]: 37.4%
- Lym [8]: 55.3%
- MCHC [8]: 32.4%
- MCV [8]: 64 fL
- Mono [8]: 2%
- Neu [8]: 40.7%
- PT [8]: 15.3 s
- Plat [8]: 41.9 x10_4/uL
- RBC [8]: 583.3 x10_4/ul
- Ret [8]: 7.7%
- WBC [8]: 99.6 x10_2/uL
- KIDNEY_L [8]: 0.9 g
- KIDNEY_R [8]: 1 g
- KIDNEY_TOTAL [8]: 1.9 g
- LIVER [8]: 8.3 g
- ALP [8]: 1299 IU/L
- ALT [8]: 330.3 IU/L
- AST [8]: 740.3 IU/L
- BUN [8]: 31.7 mg/dL
- CRE [8]: 0.2 mg/dL
- DBIL [8]: 0.06 mg/dL
- GLC [8]: 139 mg/dL
- IP [8]: 9.4 mg/dL
- K [8]: 4.4 meq/L
- LDH [8]: 271.7 IU/L
- RALB [8]: 2.2 g/dL
- TBIL [8]: 0.2 mg/dL
- TC [8]: 93.3 mg/dL
- TG [8]: 45.3 mg/dL
- TP [8]: 4.9 g/dL
- gamma-GTP [8]: 6.7 IU/L
